From ChEMBL document CHEMBL1152731, “Design, synthesis, and anti-HIV activity of 4'-modified carbocyclic nucleoside phosphonate reverse transcriptase inhibitors” (Bioorg Med Chem, 2009) come the findings set out here.

pEC50, pIC50: −log10 of the molar value.

The subject of data set [1] is Human immunodeficiency virus 1. Put plainly: Antiviral activity against HIV1 3a infected human MT2 cells assessed as inhibition of viral-induced cytopathic effect after 3 days by XTT assay. Format: functional, organism-based. Particulars: Human immunodeficiency virus 1, 3a, MT2, 72 h. Background: Cytopathic effects are the visible damage that an infection or toxin causes in cultured cells.

The nature of data set [2]: Cytotoxicity against human MT2 cells after 5 days. Format: cell-based.
Data set [3] has as its system Human immunodeficiency virus 1. The data set can be described thus: Antiviral activity against HIV1 3a with reverse transcriptase K65R mutation in human MT2 cells assessed as inhibition of viral-induced cytopathic effect by XTT assay relative to wild type. Format: functional.
In data set [4] the test system is Human immunodeficiency virus 1. Put plainly: Antiviral activity against HIV1 3a with reverse transcriptase M184V mutation in human MT2 cells assessed as inhibition of viral-induced cytopathic effect by XTT assay relative to wild type. Format: functional.
The target in data set [5] is Human immunodeficiency virus type 1 reverse transcriptase (Human immunodeficiency virus 1, UniProt Q72547). Put plainly: Inhibition on HIV1 reverse transcriptase p66/p51.

As a reminder, the pEC50 is the negative decadic logarithm of the EC50, by convention in mol/L. As for `C[C@@]1(OCP(=O)(O)O)C=C[C@H](n2cnc3c(N)ncnc32)C1`, the pEC50 in data set [1] is 3.61.
As a reminder, the CC50 is the concentration at which the toxic effect on the cells reaches its halfway point. Turning to `Nc1ncnc2c1ncn2[C@H]1C=C[C@@H](OCP(=O)(O)O)O1`, the CC50 at 120 h in data set [2] is over 1000 µM. Also, the “fold change (FC)” value in data set [3] and in data set [4] was 2.9 throughout.
`Nc1ncnc2c1ncn2[C@@H]1O[C@H](OCP(=O)(O)O)C=C1F` [GS-9148] registered a CC50 at 120 h in data set [2] of over 1000 µM. The “fold change (FC)” value is given as 1.1 in data set [3] and 0.8 in data set [4].
The term pIC50 denotes the IC50 on a negative log10 scale, so that one unit is a factor of ten. Compound `C#C[C@@]1(OCP(=O)(O)O)C=C[C@H](n2cnc3c(N)ncnc32)C1` had a CC50 at 120 h in data set [2] of 1450 µM. For the same compound, the negative-log EC50 (pEC50) in data set [1] is 4.80. Moreover, the “fold change (FC)” value in data set [3] is on record as 2.2; in data set [4], over 30. In data set [5], the pIC50 was 6.89.
As to `Nc1ncnc2c1ncn2[C@H]1C=C[C@@H](OCP(=O)(O)O)C1`, the pEC50 in data set [1] is 4.28.
In data set [2], `Cc1cn([C@H]2C[C@H](N=[N+]=[N-])[C@@H](CO)O2)c(=O)[nH]c1=O` [ZIDOVUDINE] showed a CC50 at 120 h of over 200 µM. The results for the “fold change (FC)” value in data set [3] and in data set [4] were 1.2 and 0.7, respectively.
The like results for `C[C@H](Cn1cnc2c(N)ncnc21)OCP(=O)(O)O` [TENOFOVIR ANHYDROUS] were, in that order, over 1000 µM, 4.3 and 0.7.
Regarding `Nc1nc(NC2CC2)c2ncn([C@H]3C=C[C@@H](CO)C3)c2n1` [ABACAVIR], in data set [1], the pEC50 is 6.49. In addition, the “fold change (FC)” value in data set [3] is 3.8; in data set [4] it was 7.1. This compound also showed a pIC50 in data set [5] of 6.89.
`C=C[C@@]1(OCP(=O)(O)OP(=O)(O)OP(=O)(O)O)C=C[C@H](n2cnc3c(N)ncnc32)C1` gave a pIC50 in data set [5] of 6.21.
